A word on the IC50: it is the concentration that inhibits the measured activity by half. A low value points to inhibition by little substance.

Assay [1] relates to U-87 MG human glioblastoma. The experiment in a line: U87 MG CCK-8 proliferation assay. The format is cell-based. The following applies: Homo sapiens, U-87 MG, 72 h, U-87 MG cells, read-out: U87MG CCK-8. The method, boiled down: (§1)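 Cells grown per ATCC recommendations were treated with 3-fold serial compound dilutions from 20 μM to 1.02 nM. CCK-8 absorbance was converted to % inhibition against DMSO-treated cells, with cell-free medium containing DMSO as the blank.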
(In general: Tetrazolium dyes change colour on reduction, which living cells bring about.)

The target in a further assay is T1, HSP90α protein (Homo sapiens, UniProt P07900).
T1 construct: purchased BPS Bioscience #50298
Briefly: HSP90α-binding FP (FITC) assay. The following applies: FP competition with FITC-geldanamycin. As to the method:
Binding of test compounds to HSP90α protein was measured by fluorescent polarization (FP) using the HSP90α (N-terminal) Assay Kit (BPS Bioscience, #50298), following the manufacturer's instructions, except as noted. Fluorescently labeled HSP90-binding compounds, either the provided FITC-geldanamycin (5 nM final concentration) or RNK04010, a triazolone-based HSP90 binding small molecule labeled with BODIPY through a piperazine-phenyl linker (5 nM final concentration) were employed. A 2.5-fold serial dilution of each test compound ranging from 20 μM to 5.2 nM was assayed for binding to HSP90α. After the final step of adding HSP90α protein to each assay well, plates were mixed by brief shaking, incubated at 25° C. for 120 min for FITC-geldanamycin or 300 min for RNK04010, and fluorescence was measured using a PerkinElmer EnVision Plate Reader.

Assay [2] deals with MV-4-11 human acute myeloid leukemia. Briefly: MV-4-11 CCK-8 proliferation assay. The format is cell-based. The note with it: Homo sapiens, MV4-11; MV-4-11 cells, 72 hr. In a few lines: as §1

Take `CCOc1cc(N2CCC(C(=O)NCCc3ccc(-n4c(O)nnc4-c4cc(C(C)C)c(O)cc4O)cc3)CC2)ccc1Nc1ncc2c(n1)N(C)c1ccccc1C(=O)N2C` [Compound 008, N-(4-(3-(2,4-dihydroxy-5-isopropylphenyl)-5-hydroxy-4H-1,2,4-triazol-4-yl)phenethyl)-1-(4-((5,11-dimethyl-6-oxo-6,11-dihydro-5H-benzo[e]pyrimido[5,4-b][1,4]diazepin-2-yl)amino)-3-ethoxyphenyl)piperidine-4-carboxamide]: the EC50 in assay [1] was 0.1 to 1 µM; in assay [2] it was below 0.1 µM. The compound further returned an IC50 at HSP90α protein of 0.1 to 1 µM.

Consider `CCOc1cc(N2CCC(C(=O)NCC3CCN(C(=O)C4CCN(Cc5ccc(-n6c(O)nnc6-c6cc(CC)c(O)cc6O)cc5)CC4)CC3)CC2)ccc1Nc1ncc2c(n1)N(C)c1ccccc1C(=O)N2C` [Compound 011, 1-(4-((5,11-dimethyl-6-oxo-6,11-dihydro-5H-benzo[e]pyrimido[5,4-b][1,4]diazepin-2-yl)amino)-3-ethoxyphenyl)-N-((1-(1-(4-(3-(5-ethyl-2,4-dihydroxyphenyl)-5-hydroxy-4H-1,2,4-triazol-4-yl)benzyl)piperidine-4-carbonyl)piperidin-4-yl)methyl)piperidine-4-carboxamide], for which the results for the EC50 in assay [1] and in assay [2] were above 1 µM and 0.1 to 1 µM, respectively. The compound also displayed an IC50 on HSP90α protein of 0.1 to 1 µM.

Take `CCOc1cc(N2CCC(C(=O)NCC3CCN(C(=O)C4CCN(Cc5ccc(-n6c(O)nnc6-c6cc(CC)c(O)cc6O)cc5)CC4)C3)CC2)ccc1Nc1ncc2c(n1)N(C)c1ccccc1C(=O)N2C` (stereo not drawn) [Compound 012, 1-(4-((5,11-dimethyl-6-oxo-6,11-dihydro-5H-benzo[e]pyrimido[5,4-b][1,4]diazepin-2-yl)amino)-3-ethoxyphenyl)-N-((1-(1-(4-(3-(5-ethyl-2,4-dihydroxyphenyl)-5-hydroxy-4H-1,2,4-triazol-4-yl)benzyl)piperidine-4-carbonyl)pyrrolidin-3-yl)methyl)piperidine-4-carboxamide]: the EC50 in assay [1] was above 1 µM; in assay [2], 0.1 to 1 µM. The IC50 at HSP90α protein is 0.1 to 1 µM.

Take `CCOc1cc(N2CCC(C(=O)NCCOCCOc3ccc(-n4c(O)nnc4-c4cc(C(C)C)c(O)cc4O)cc3)CC2)ccc1Nc1ncc2c(n1)N(C)c1ccccc1C(=O)N2C` [Compound 015, N-(2-(2-(4-(3-(2,4-dihydroxy-5-isopropylphenyl)-5-hydroxy-4H-1,2,4-triazol-4-yl)phenoxy)ethoxy)ethyl)-1-(4-((5,11-dimethyl-6-oxo-6,11-dihydro-5H-benzo[e]pyrimido[5,4-b][1,4]diazepin-2-yl)amino)-3-ethoxyphenyl)piperidine-4-carboxamide]: the EC50 in assay [1] is 0.1 to 1 µM; in assay [2] it was below 0.1 µM. In addition, the IC50 at HSP90α protein was 0.1 to 1 µM.

For the compound `CCOc1cc(N2CCC(C(=O)NCCOCCOCCOc3ccc(-n4c(O)nnc4-c4cc(C(C)C)c(O)cc4O)cc3)CC2)ccc1Nc1ncc2c(n1)N(C)c1ccccc1C(=O)N2C` [Compound 016, N-(2-(2-(2-(4-(3-(2,4-dihydroxy-5-isopropylphenyl)-5-hydroxy-4H-1,2,4-triazol-4-yl)phenoxy)ethoxy)ethoxy)ethyl)-1-(4-((5,11-dimethyl-6-oxo-6,11-dihydro-5H-benzo[e]pyrimido[5,4-b][1,4]diazepin-2-yl)amino)-3-ethoxyphenyl)piperidine-4-carboxamide], the EC50 in assay [1] was 0.1 to 1 µM; in assay [2] it was below 0.1 µM. On HSP90α protein, this compound came in with an IC50 of 0.1 to 1 µM.

As for `CCOc1cc(N2CCC(C(=O)NCCOCCOCCOc3ccc(-n4c(O)nnc4-c4cc(CC)c(O)cc4O)cc3)CC2)ccc1Nc1ncc2c(n1)N(C)c1ccccc1C(=O)N2C` [Compound 017, 1-(4-((5,11-dimethyl-6-oxo-6,11-dihydro-5H-benzo[e]pyrimido[5,4-b][1,4]diazepin-2-yl)amino)-3-ethoxyphenyl)-N-(2-(2-(2-(4-(3-(5-ethyl-2,4-dihydroxyphenyl)-5-hydroxy-4H-1,2,4-triazol-4-yl)phenoxy)ethoxy)ethoxy)ethyl)piperidine-4-carboxamide], the results for the EC50 in assay [1] and in assay [2] were above 1 µM and below 0.1 µM, respectively. In addition, the IC50 at HSP90α protein fell in the range of 0.1 to 1 µM.

`CCOc1cc(N2CCC(C(=O)N3CCC(N4CCN(C(=O)O[C@H]5CC[C@H](Nc6cc(-n7nc(C(F)(F)F)c8c7CC(C)(C)CC8=O)ccc6C(N)=O)CC5)CC4)CC3)CC2)ccc1Nc1ncc2c(n1)N(C)c1ccccc1C(=O)N2C` [Compound 125, (1R,4R)-4-((2-carbamoyl-5-(6,6-dimethyl-4-oxo-3-(trifluoromethyl)-4,5,6,7-tetrahydro-1H-indazol-1-yl)phenyl)amino)cyclohexyl 4-(1-(1-(4-((5,11-dimethyl-6-oxo-6,11-dihydro-5H-benzo[e]pyrimido[5,4-b][1,4]diazepin-2-yl)amino)-3-ethoxyphenyl)piperidine-4-carbonyl)piperidin-4-yl)piperazine-1-carboxylate]: the EC50 in assay [1] and in assay [2] was above 1 µM each time. This compound also displayed an IC50 on HSP90α protein above 1 µM.

As to `CCOc1cc(N2CCC(C(=O)N3CCC(CN4CCN(C(=O)c5ccc(-n6c(O)nnc6-c6cc(C(C)C)c(O)cc6O)cc5)CC4)CC3)CC2)ccc1Nc1ncc2c(n1)N(C)c1ccccc1C(=O)N2C` [Compound 126, 2-((4-(4-(4-((4-(4-(3-(2,4-dihydroxy-5-isopropylphenyl)-5-hydroxy-4H-1,2,4-triazol-4-yl)benzoyl)piperazin-1-yl)methyl)piperidine-1-carbonyl)piperidin-1-yl)-2-ethoxyphenyl)amino)-5,11-dimethyl-5,11-dihydro-6H-benzo[e]pyrimido[5,4-b][1,4]diazepin-6-one], the values for the EC50 in assay [1] and in assay [2] were 0.1 to 1 µM and below 0.1 µM, respectively. The compound further came in with an IC50 on HSP90α protein of 0.1 to 1 µM.

For `CCOc1cc(N2CCC(C(=O)N3CCC(CN4CCN(C(=O)c5ccc(-n6c(O)nnc6-c6cc(C(C)C)c(O)cc6O)cc5)CC4)CC3)CC2)ccc1Nc1ncc2c(n1)N(S(C)(=O)=O)c1ccccc1C(=O)N2C` [Compound 127, 2-((4-(4-(4-((4-(4-(3-(2,4-dihydroxy-5-isopropylphenyl)-5-hydroxy-4H-1,2,4-triazol-4-yl)benzoyl)piperazin-1-yl)methyl)piperidine-1-carbonyl)piperidin-1-yl)-2-ethoxyphenyl)amino)-5-methyl-11-(methylsulfonyl)-5,11-dihydro-6H-benzo[e]pyrimido[5,4-b][1,4]diazepin-6-one], the EC50 in assay [1] and in assay [2] was 0.1 to 1 µM each time. The same compound came in with an IC50 on HSP90α protein of 0.1 to 1 µM.

Take `CCOc1cc(N2CCC(C(=O)N3CCC(CN4CCC(COc5ccc(Nc6cc(-n7nc(C(F)(F)F)c8c7CC(C)(C)CC8=O)ccc6C(N)=O)cc5)CC4)CC3)CC2)ccc1Nc1ncc2c(n1)N(C)c1ccccc1C(=O)N2C` [Compound 129, 4-(6,6-dimethyl-4-oxo-3-(trifluoromethyl)-4,5,6,7-tetrahydro-1H-indazol-1-yl)-2-((4-((1-((1-(1-(4-((5,11-dimethyl-6-oxo-6,11-dihydro-5H-benzo[e]pyrimido[5,4-b][1,4]diazepin-2-yl)amino)-3-ethoxyphenyl)piperidine-4-carbonyl)piperidin-4-yl)methyl)piperidin-4-yl)methoxy)phenyl)amino)benzamide]: the EC50 is above 1 µM in assay [1] and 0.1 to 1 µM in assay [2]. In addition, the IC50 at HSP90α protein lay within 0.1 to 1 µM.

The values are drawn from patent publication US20240124460A1, “METHODS AND COMPOSITIONS FOR TARGETED PROTEIN DEGRADATION” (Ranok Therapeutics (Hangzhou) Co. Ltd., priority 2020, published 2024).
